Test results from article PMC9289672, “Optimization of Antibacterial Activity in Tibetan Swine α-Helix Peptide TP by Site-Directed Mutagenesis” (Frontiers in Microbiology, 2022).
Where no end group is shown, it is not given here.

Legend:
[1] = system: Gram-negative bacteria; assay: Geometric mean of MIC and therapeutic index; type: cell-based; settings: for Therapeutic index (TI), Gram-negative bacteria: MHC/GM, 128 μm used when 50% hemolysis not observed at 128 μm
Method: (§1) The bacteria were cultured overnight in the MHB medium and transferred to the new MHB the next day until the bacteria reached the exponential growth stage. The bacteria were diluted with MHB to 2 × 10^5 CFU/ml. About 50 μl of polypeptide and equal volume of bacterial suspension was added to a 96-well plate to give the final concentration of polypeptide between 1 and 128 μm. The last two columns are negative (MHB only) and positive (bacterial and MHB) controls and incubated at 37°C for 18–24 h. Optical density was measured at an absorbance wavelength of 492 nm using a microplate reader (Tecan GENios F129004, Tecan, Austria). At least three independent measurements were taken. Each trial was conducted two times in parallel. A total of three independent assays were carried out.
(§2) Trp is a hydrophobic amino acid with aromatic side chains. It is a special amino acid in peptide design. Previous studies have pointed out that introducing amino acids will also bring toxicity while improving activity. […] For further evaluating the cell selectivity of the peptides, we also calculated the SI which defined as the ratio of MHC to the geometric mean (GM) (Dufourc, [2008]).

[2] = system: Gram-positive bacteria; assay: Geometric mean of MIC and therapeutic index; type: cell-based; settings: for Therapeutic index (TI), Gram-positive bacteria: MHC/GM, 128 μm used when 50% hemolysis not observed at 128 μm
Method: as §1, §2

[3] = system: hRBCs (human red blood cells)
Method: The cytotoxicity of each peptide was assessed with IPEC-J12 and HEK 293T cells. […] Each trial was conducted two times in parallel. A total of three independent assays were carried out.

[4] = system: Staphylococcus aureus ATCC 25923
From the text: (§3) The bacteria strains Escherichia coli ATCC 25922, Escherichia coli UB1005, Salmonella typhimurium ATCC 14028, Salmonella typhimurium C7731, Pseudomonas aeruginosa ATCC 27853, Pseudomonas aeruginosa PAO1, Staphylococcus aureus ATCC 29213, Staphylococcus aureus ATCC 25923, Methicillin-resistant Staphylococcus aureus (MRSA) 43300, Enterococcus faecalis ATCC 29212, and Staphylococcus epidermidis ATCC 12228 were obtained from the College of Veterinary Medicine, Northeast Agricultural University (Harbin, China).
as §1

[5] = system: Enterococcus faecalis ATCC 29212
From the text: as §3, §1

[6] = system: Pseudomonas aeruginosa ATCC 27853
From the text: as §3, §1

[7] = system: Staphylococcus aureus ATCC 29213
From the text: as §3, §1

[8] = system: Staphylococcus epidermidis ATCC 12228
From the text: as §3, §1

[9] = system: Escherichia coli ATCC 25922
From the text: as §3, §1

[10] = system: Methicillin-resistant Staphylococcus aureus (MRSA) 43300; settings: Methicillin-resistant 43300
From the text: as §3, §1

[11] = system: Salmonella typhimurium ATCC 14028
From the text: as §3, §1

[12] = system: Pseudomonas aeruginosa PAO1
From the text: as §3, §1

[13] = system: all strains in Table 2; assay: Geometric mean of MIC and therapeutic index; type: cell-based; settings: for Therapeutic index (TI) / selectivity index (SI), All: MHC/GM, 128 μm used when 50% hemolysis not observed at 128 μm
Method: as §1
Trp is a hydrophobic amino acid with aromatic side chains. It is a special amino acid in peptide design. Previous studies have pointed out that introducing amino acids will also bring toxicity while improving activity. Therefore, at the beginning of the design, we predicted that selecting Trp as hydrophobic amino acid to substitute H-H position would bring certain toxicity to the peptide. Thus, as expected, the introduction of Trp increases the activity and toxicity of these peptides. […] Meanwhile, the virulence of TP(i+4) 1&2&5&6 and TP(i+4) 1&2&6&7 was lower than that of TP(i+4) 1&2&5&7. We infer that the location of hydrophobic centers can effectively reduce peptide toxicity by Trp substitution. For further evaluating the cell selectivity of the peptides, we also calculated the SI which defined as the ratio of MHC to the geometric mean (GM) (Dufourc, [2008]).

[14] = system: Salmonella typhimurium C7731; settings: MHB, bacteria diluted to 2 × 10^5 CFU/ml, peptide 1-128 μm, 37°C 18-24 h, OD 492 nm; three independent assays, two in parallel
From the text: as §3, §1

[15] = system: Escherichia coli UB1005; settings: MHB, bacteria diluted to 2 × 10^5 CFU/ml, peptide 1-128 μm, 37°C 18-24 h, OD 492 nm; three independent assays, two in parallel
From the text: as §3, §1

[16] = strains of Table 2, 128 μm used when no activity at 128 μm

AKVVKKLTKGVAGLLK-NH2 [TP(i+4) 1&3]
Geometric mean (GM) of MIC, Gram-negative bacteria [1, 16]: 71.84 µM
Geometric mean (GM) of MIC, Gram-positive bacteria [2, 16]: 128.00 µM
MHC (concentration of peptide that causes hemolysis of 50% of human red blood cells) [3]: >128 µM
MIC, S. aureus 25923 [4]: >128 µM
MIC, E. faecalis 29212 [5]: >128 µM
MIC, P. aeruginosa 27853 [6]: 128 µM
MIC, S. aureus 29213 [7]: >128 µM
MIC, S. epidermidis 12228 [8]: >128 µM
MIC, E. coli 25922 [9]: 64 µM
MIC, S. aureus 43300 [10]: >128 µM
MIC, S. typhimurium 14028 [11]: >128 µM
MIC, P. aeruginosa PAO1 [12]: 64 µM
Geometric mean (GM) of MIC, All ([13]; all strains in Table 2, 128 μm used when no activity at 128 μm): 95.89 µM

AKVVKKLTKGVAKLLK-NH2 [TP(i+4) 1&2&3]
Therapeutic index (TI), Gram-negative bacteria [1]: 3.56
Therapeutic index (TI), Gram-positive bacteria [2]: 1.00
MHC (concentration of peptide that causes hemolysis of 50% of human red blood cells) [3]: >128 µM
MIC, S. aureus 25923 [4]: >128 µM
MIC, S. typhimurium 7731 [14]: 64 µM
MIC, E. coli UB1005 [15]: 8 µM
MIC, E. faecalis 29212 [5]: >128 µM
MIC, P. aeruginosa 27853 [6]: 64 µM
MIC, S. aureus 29213 [7]: >128 µM
MIC, S. epidermidis 12228 [8]: >128 µM
MIC, E. coli 25922 [9]: 32 µM
MIC, S. aureus 43300 [10]: >128 µM
MIC, S. typhimurium 14028 [11]: 128 µM
MIC, P. aeruginosa PAO1 [12]: 16 µM
Therapeutic index (TI) / selectivity index (SI), All [13]: 1.89

AKVVNKLTGGVAGLLK-NH2 [TP(i+4) 3]
Therapeutic index (TI), Gram-negative bacteria [1]: 1.00
Therapeutic index (TI), Gram-positive bacteria [2]: 1.00
MHC (concentration of peptide that causes hemolysis of 50% of human red blood cells) [3]: >128 µM
MIC, S. aureus 25923 [4]: >128 µM
MIC, S. typhimurium 7731 [14]: >128 µM
MIC, E. coli UB1005 [15]: >128 µM
MIC, E. faecalis 29212 [5]: >128 µM
MIC, P. aeruginosa 27853 [6]: >128 µM
MIC, S. aureus 29213 [7]: >128 µM
MIC, S. epidermidis 12228 [8]: >128 µM
MIC, E. coli 25922 [9]: >128 µM
MIC, S. aureus 43300 [10]: >128 µM
MIC, S. typhimurium 14028 [11]: >128 µM
MIC, P. aeruginosa PAO1 [12]: >128 µM
Therapeutic index (TI) / selectivity index (SI), All [13]: 1.00

AKVVNKLTGKVAGLLK-NH2 [TP(i+4) 3&4]
Therapeutic index (TI), Gram-negative bacteria [1]: 1.12
Therapeutic index (TI), Gram-positive bacteria [2]: 1.00
MHC (concentration of peptide that causes hemolysis of 50% of human red blood cells) [3]: >128 µM
MIC, S. aureus 25923 [4]: >128 µM
MIC, S. typhimurium 7731 [14]: >128 µM
MIC, E. coli UB1005 [15]: 64 µM
MIC, E. faecalis 29212 [5]: >128 µM
MIC, P. aeruginosa 27853 [6]: >128 µM
MIC, S. aureus 29213 [7]: >128 µM
MIC, S. epidermidis 12228 [8]: >128 µM
MIC, E. coli 25922 [9]: 128 µM
MIC, S. aureus 43300 [10]: >128 µM
MIC, S. typhimurium 14028 [11]: >128 µM
MIC, P. aeruginosa PAO1 [12]: 128 µM
Therapeutic index (TI) / selectivity index (SI), All [13]: 1.06

AKVVNKLTKKVAKLLK-NH2 [TP(i+4) 2&3&4]
Therapeutic index (TI), Gram-negative bacteria [1]: 4.00
Therapeutic index (TI), Gram-positive bacteria [2]: 1.00
MHC (concentration of peptide that causes hemolysis of 50% of human red blood cells) [3]: >128 µM
MIC, S. aureus 25923 [4]: >128 µM
MIC, S. typhimurium 7731 [14]: 64 µM
MIC, E. coli UB1005 [15]: 16 µM
MIC, E. faecalis 29212 [5]: >128 µM
MIC, P. aeruginosa 27853 [6]: 128 µM
MIC, S. aureus 29213 [7]: >128 µM
MIC, S. epidermidis 12228 [8]: >128 µM
MIC, E. coli 25922 [9]: 16 µM
MIC, S. aureus 43300 [10]: >128 µM
MIC, S. typhimurium 14028 [11]: 64 µM
MIC, P. aeruginosa PAO1 [12]: 8 µM
Therapeutic index (TI) / selectivity index (SI), All [13]: 2.00
